Patent US10738028B2, “Spiro three-membered ring, spiro five-membered ring peptide deformylase inhibitor and use thereof in antibacteria and anti-tumor” (priority 2016, dated 2020)
Read-outs that look alike come from different tables or passages of the source.

Columns and labels:
Format in all cases: cell-based
[1] = system: A549 lung cancer cell line; experiment: CCK-8 proliferation inhibition
How it was run: (§1)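 Plating at 2000 cells/well, then incubation overnight at 37° C. Next, a range of compound concentrations for 72 hours (control 1‰ DMSO). Finally, medium decanted and CCK-8 diluted 1:10 added.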

[2] = system: BEL-7402 liver cancer cell line; experiment: CCK-8 proliferation inhibition; details: for inhibition at 30 µM: Bel-7402, 72 h
How it was run: as §1

[3] = system: MGC-803 gastric cancer cell line; experiment: CCK-8 proliferation inhibition; details: for inhibition at 30 µM: MGC-803, 72 h
How it was run: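 Cells were seeded at 2000 cells/well and cultured overnight at 37° C, 5% CO2, then exposed for 72 hours to compounds diluted from DMSO stocks. Controls received 1‰ DMSO. CCK-8 (1:10 diluted) replaced the medium. MGC-803 and Jurkat were grown in 1640, PC3 in F12, and MCF-7 in DMEM high glucose, each with 10% newborn bovine serum.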

[4] = system: methicillin-sensitive Staphylococcus aureus (MSSA); experiment: MIC, two-fold agar dilution (CLSI), clinical isolates; details: for Anti-bacterial activity (MIC), strain MSSA 15-3: clinical isolate MSSA 15-3; for Anti-bacterial activity (MIC), strain MSSA 15-4: clinical isolate MSSA 15-4; for Anti-bacterial activity (MIC), strain MSSA 15-5: clinical isolate MSSA 15-5; for Anti-bacterial activity (MIC), strain MSSA 15-6: clinical isolate MSSA 15-6
How it was run: (§2)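 Susceptibility was tested using CLSI two-fold agar dilution against the strains examined.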

[5] = system: Escherichia coli (including ESBLs, non-ESBLs); experiment: as above; details: for Anti-bacterial activity (MIC), strain ECO+ 15-1: clinical isolate ECO+ 15-1; for Anti-bacterial activity (MIC), strain ECO+ 15-2: clinical isolate ECO+ 15-2; for Anti-bacterial activity (MIC), strain ECO+ 15-3: clinical isolate ECO+ 15-3; for Anti-bacterial activity (MIC), strain ECO+ 15-4: clinical isolate ECO+ 15-4; for Anti-bacterial activity (MIC), strain ECO− 15-1: clinical isolate ECO− 15-1; for Anti-bacterial activity (MIC), strain ECO− 15-2: clinical isolate ECO− 15-2; for Anti-bacterial activity (MIC), strain ECO− 15-3: clinical isolate ECO− 15-3; for Anti-bacterial activity (MIC), strain ECO− 15-4: clinical isolate ECO− 15-4
How it was run: as §2

[6] = system: methicillin-resistant Staphylococcus epidermidis (MRSE); experiment: as above; details: for Anti-bacterial activity (MIC), strain MRSE 15-1: clinical isolate MRSE 15-1; for Anti-bacterial activity (MIC), strain MRSE 15-2: clinical isolate MRSE 15-2; for Anti-bacterial activity (MIC), strain MRSE 15-3: clinical isolate MRSE 15-3; for Anti-bacterial activity (MIC), strain MRSE 15-7: clinical isolate MRSE 15-7
How it was run: as §2

[7] = system: Enterococcus faecalis (EFA); experiment: as above
How it was run: as §2

[8] = system: methicillin-sensitive Staphylococcus epidermidis (MSSE); experiment: as above; details: for Anti-bacterial activity (MIC), strain MSSE 15-3: clinical isolate MSSE 15-3; for Anti-bacterial activity (MIC), strain MSSE 15-4: clinical isolate MSSE 15-4; for Anti-bacterial activity (MIC), strain MSSE 15-5: clinical isolate MSSE 15-5; for Anti-bacterial activity (MIC), strain MSSE 15-6: clinical isolate MSSE 15-6
How it was run: as §2

[9] = system: Streptococcus pneoumoniae (SPN); experiment: as above
How it was run: as §2

[10] = system: Moraxella catarrhalis (BCA); experiment: as above
How it was run: as §2

[11] = system: methicillin-resistant Staphylococcus aureus (MRSA); experiment: as above; details: for Anti-bacterial activity (MIC), strain MRSA 15-1: clinical isolate MRSA 15-1; for Anti-bacterial activity (MIC), strain MRSA 15-2: clinical isolate MRSA 15-2; for Anti-bacterial activity (MIC), strain MRSA 15-3: clinical isolate MRSA 15-3; for Anti-bacterial activity (MIC), strain MRSA 15-4: clinical isolate MRSA 15-4
How it was run: as §2

[12] = system: Enterococcus faecium (EFM); experiment: as above
How it was run: as §2

[13] = system: HCT-116 colorectal cancer cell line; experiment: CCK-8 proliferation inhibition; details: 72 hours, CCK-8; for inhibition at 30 µM: HCT-116, 72 h
How it was run: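 HCT-116 cells, seeded at 2000 cells/well in McCoy's 5A with 10% newborn bovine serum, were cultured overnight at 37° C., 5% CO2, then exposed to compound dilutions in medium for 72 hours. Viability was read with 1:10 diluted CCK-8; controls received 1‰ DMSO.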

[14] = Homo sapiens, concentration of 30 μM
[15] = concentration of 30 μM, 72 hours, 30 µM

Cc1cc(NC(=O)[C@@H]2CC3(CC3)CN2C(=O)[C@@H](CC(=O)NO)CC2CCCC2)no1 [Example 71]
2 mg/L: Anti-bacterial activity (MIC) ([7]; strain EFA 15-1) | Anti-bacterial activity (MIC) ([7]; strain EFA 15-2) | Anti-bacterial activity (MIC) ([7]; strain EFA 15-4) | Anti-bacterial activity (MIC) ([7]; strain EFA 15-5) | Anti-bacterial activity (MIC) ([7]; strain EFA 15-6) | Anti-bacterial activity (MIC) ([9]; strain SPN 16-2) | Anti-bacterial activity (MIC) ([12]; strain EFM 15-2) | Anti-bacterial activity (MIC) ([12]; strain EFM 15-4)
1 mg/L: Anti-bacterial activity (MIC) ([7]; strain EFA 15-9) | Anti-bacterial activity (MIC), strain MRSA 15-2 [11]
16 mg/L: Anti-bacterial activity (MIC), strain ECO+ 15-1 [5] | Anti-bacterial activity (MIC), strain ECO+ 15-2 [5] | Anti-bacterial activity (MIC), strain ECO− 15-1 [5] | Anti-bacterial activity (MIC), strain ECO− 15-2 [5] | Anti-bacterial activity (MIC), strain ECO− 15-3 [5]
0.125 mg/L: Anti-bacterial activity (MIC), strain MSSA 15-4 [4] | Anti-bacterial activity (MIC), strain MRSE 15-2 [6] | Anti-bacterial activity (MIC), strain MRSE 15-3 [6] | Anti-bacterial activity (MIC) ([10]; strain BCA 14-10) | Anti-bacterial activity (MIC), strain MRSA 15-1 [11] | Anti-bacterial activity (MIC), strain MRSA 15-3 [11] | Anti-bacterial activity (MIC) ([12]; strain EFM 15-5)
0.25 mg/L: Anti-bacterial activity (MIC), strain MSSA 15-3 [4] | Anti-bacterial activity (MIC), strain MSSA 15-6 [4] | Anti-bacterial activity (MIC), strain MRSE 15-7 [6] | Anti-bacterial activity (MIC) ([9]; strain SPN 16-4) | Anti-bacterial activity (MIC) ([10]; strain BCA 14-5) | Anti-bacterial activity (MIC) ([10]; strain BCA 14-8) | Anti-bacterial activity (MIC) ([12]; strain EFM 15-3)
49%: inhibition at 30 µM [2, 14]
≥ 30%: inhibition at 30 µM ([13]; Homo sapiens, concentration of 30 μM, Table 5, read-out: Inhibition of proliferation, Colorectal cancer HCT116)
0.16 mg/L: Anti-bacterial activity (MIC), strain MSSE 15-3 [8]
32 mg/L: Anti-bacterial activity (MIC), strain ECO+ 15-3 [5] | Anti-bacterial activity (MIC), strain ECO+ 15-4 [5] | Anti-bacterial activity (MIC), strain ECO− 15-4 [5]
30%: inhibition at 30 µM ([13]; Homo sapiens, concentration of 30 μM, read-out: HCT116 inhibition rate/%)
0.06 mg/L: Anti-bacterial activity (MIC), strain MSSA 15-5 [4] | Anti-bacterial activity (MIC), strain MRSE 15-1 [6] | Anti-bacterial activity (MIC), strain MSSE 15-4 [8] | Anti-bacterial activity (MIC), strain MSSE 15-5 [8] | Anti-bacterial activity (MIC), strain MSSE 15-6 [8]
0.5 mg/L: Anti-bacterial activity (MIC) ([7]; strain EFA 15-3) | Anti-bacterial activity (MIC) ([10]; strain BCA 14-1) | Anti-bacterial activity (MIC) ([10]; strain BCA 14-4) | Anti-bacterial activity (MIC) ([10]; strain BCA 14-6) | Anti-bacterial activity (MIC) ([10]; strain BCA 14-7) | Anti-bacterial activity (MIC), strain MRSA 15-4 [11] | Anti-bacterial activity (MIC) ([12]; strain EFM 15-1) | Anti-bacterial activity (MIC) ([12]; strain EFM 15-6)
34%: inhibition at 30 µM [3, 14]
5%: inhibition at 30 µM ([1]; Homo sapiens, A549, 72 h, concentration of 30 μM)

O=C(C[C@@H](CC1CCCC1)C(=O)N1CC2(CC2)C[C@@H]1c1nc2ccccc2[nH]1)NO [Example 76, (R)-4-((R)-6-(1H-benzimidazol-2-yl)-5-azaspiro[2.4]heptane-5-yl)-3-(cyclopentylmethyl)-N-hydroxy-4-oxobutanamide]
> 32 mg/L: Anti-bacterial activity (MIC), strain MSSA 15-3 [4] | Anti-bacterial activity (MIC), strain MSSA 15-4 [4] | Anti-bacterial activity (MIC), strain MSSA 15-5 [4] | Anti-bacterial activity (MIC), strain MSSA 15-6 [4] | Anti-bacterial activity (MIC), strain ECO+ 15-1 [5] | Anti-bacterial activity (MIC), strain ECO+ 15-2 [5] | Anti-bacterial activity (MIC), strain ECO+ 15-3 [5] | Anti-bacterial activity (MIC), strain ECO+ 15-4 [5] | Anti-bacterial activity (MIC), strain ECO− 15-1 [5] | Anti-bacterial activity (MIC), strain ECO− 15-2 [5] | Anti-bacterial activity (MIC), strain ECO− 15-3 [5] | Anti-bacterial activity (MIC), strain ECO− 15-4 [5] | Anti-bacterial activity (MIC), strain MRSE 15-1 [6] | Anti-bacterial activity (MIC), strain MRSE 15-2 [6] | Anti-bacterial activity (MIC), strain MRSE 15-3 [6] | Anti-bacterial activity (MIC), strain MRSE 15-7 [6] | Anti-bacterial activity (MIC) ([7]; strain EFA 15-1) | Anti-bacterial activity (MIC) ([7]; strain EFA 15-2) | Anti-bacterial activity (MIC) ([7]; strain EFA 15-3) | Anti-bacterial activity (MIC) ([7]; strain EFA 15-4) | Anti-bacterial activity (MIC) ([7]; strain EFA 15-5) | Anti-bacterial activity (MIC) ([7]; strain EFA 15-6) | Anti-bacterial activity (MIC) ([7]; strain EFA 15-9) | Anti-bacterial activity (MIC), strain MSSE 15-3 [8] | Anti-bacterial activity (MIC), strain MSSE 15-4 [8] | Anti-bacterial activity (MIC), strain MSSE 15-5 [8] | Anti-bacterial activity (MIC), strain MSSE 15-6 [8] | Anti-bacterial activity (MIC) ([10]; strain BCA 14-4) | Anti-bacterial activity (MIC) ([10]; strain BCA 14-5) | Anti-bacterial activity (MIC) ([10]; strain BCA 14-6) | Anti-bacterial activity (MIC) ([10]; strain BCA 14-7) | Anti-bacterial activity (MIC) ([10]; strain BCA 14-8) | Anti-bacterial activity (MIC) ([10]; strain BCA 14-10) | Anti-bacterial activity (MIC), strain MRSA 15-1 [11] | Anti-bacterial activity (MIC), strain MRSA 15-2 [11] | Anti-bacterial activity (MIC), strain MRSA 15-3 [11] | Anti-bacterial activity (MIC), strain MRSA 15-4 [11] | Anti-bacterial activity (MIC) ([12]; strain EFM 15-1) | Anti-bacterial activity (MIC) ([12]; strain EFM 15-2) | Anti-bacterial activity (MIC) ([12]; strain EFM 15-3)
9.29 µM: IC50 ([1]; Homo sapiens, A549, 72 hours)
67%: Inhibition of proliferation, Liver cancer BEL-7402 [2, 15]
2 mg/L: Anti-bacterial activity (MIC) ([10]; strain BCA 14-1)
32 mg/L: Anti-bacterial activity (MIC) ([12]; strain EFM 15-6)
8 mg/L: Anti-bacterial activity (MIC) ([9]; strain SPN 16-2)
4 mg/L: Anti-bacterial activity (MIC) ([9]; strain SPN 16-4)
8.58 µM: IC50 ([2]; Homo sapiens, Bel-7402, 72 hours)
94%: Inhibition of proliferation, Lung cancer A549 [1, 15]
> 50%: inhibition at 30 µM [2, 14] | inhibition at 30 µM [3, 14]
16 mg/L: Anti-bacterial activity (MIC) ([12]; strain EFM 15-4) | Anti-bacterial activity (MIC) ([12]; strain EFM 15-5)
64%: Inhibition of proliferation, Gastric cancer MGC-803 [3, 15]
16.6 µM: IC50 ([3]; Homo sapiens, MGC-803, 72 hours)
87%: HCT116 inhibition rate/% ([13]; concentration of 30 μM, 30 µM)
10.8 µM: IC50 ([13]; Homo sapiens, HCT-116)
